Data reported in US9586986B2, “Substituted 7-deazapurine ribonucleosides for therapeutic uses” (Institute of Organic Chemistry and Biochemistry ASCR, v.v.i., priority 2014, dated 2017).

Columns and labels:
Format in all cases: cell-based
[1] = test system: K562; assay: Cytostatic/cytotoxic MTT assay, K562; conditions: Homo sapiens, K562; 72 h incubation; read-out: MTT, IC50 K562
Source text: (§1) Unless otherwise stated, all cells were purchased from the […] (ATCC). The CCRF-CEM line is derived from T lymphoblastic leukemia, evincing high chemosenzitivity, K562 represent cells from a […] patient sample with bcr-abl translocation, HCT116 is colorectal tumor cell line and its p53 gene knock-down counterpart (HCT116p53−/−, Horizon Discovery, UK) is a model of human cancers with p53 inactivation frequently associated with poor prognosis, A549 cell line is lung adenocarcinoma. The daunorubicin resistant subline of CCRF-CEM cells (CEM-DNR bulk) and paclitaxel resistant subline K562-TAX were selected in our laboratory by cultivation of maternal cell lines in increasing concentrations of daunorubicine or paclitaxel, respectively. The CEM-DNR cells overexpress mrp-1 and mdr-1 genes, while K562-TAX cells overexpress mdr-1 only. Both proteins belong to the family of ABC transporters and are involved in the primary and/or acquired multidrug resistance phenomenon (ref.: Gottesman, M. M.; Fojo, T.; Bates, S. E. Multidrug resistance in cancer: role of ATP-dependent transporters. Nat. Rev. Cancer. 2002, 2, 48-58. (b) Noskova, V.; Dzubak, P.; Kuzmina, G.; Ludkova, A.; Stehlik, D.; Trojanec, R.; Janostakova, A.; Korinkova, G.; Mihal, V.; Hajduch, M. In vitro chemoresistance profile and expression/function of MDR associated proteins in resistant cell lines derived from CCRF-CEM, K562, A549 and MDA MB 231 parental cells. Neoplasma 2002, 49, 418-425). Non-malignant MRC-5 and BJ cells, derived from normal human fibroblasts, were used as controls. The cells were maintained in Nunc/Corning 80 cm^2 plastic tissue culture flasks and cultured in cell culture medium (DMEM/RPMI 1640 with 5 g/L glucose, 2 mM glutamine, 100 U/mL penicillin, 100 µg/mL streptomycin, 10% fetal calf serum, and NaHCO3). Cell suspensions were prepared and diluted according to the particular cell type and the expected target cell density (25,000-30,000 cells/well based on cell growth characteristics). Cells were added by pipette (80 L) into 96-well microtiter plates. Inoculates were allowed a pre-incubation period of 24 h at 37° C. and 5% CO2 for stabilization. Four-fold dilutions, in 20-L aliquots, of the intended test concentration were added to the microtiter plate walls at time zero. All test compound concentrations were examined in duplicate. Incubation of the cells with the test compounds lasted for 72 h at 37° C., in a 5% CO2 atmosphere at 100% humidity. At the end of the incubation period, the cells were assayed using MTT. Aliquots (10 L) of the MTT stock solution (5 mg/ml) were pipetted into each well and incubated for another 1-4 h. After this incubation period the formazan produced was dissolved by addition of 100 µL/well of 10% aq SDS (pH 5.5), followed by a further incubation at 37° C. overnight. The optical density was measured at 540 nm. The IC50 value, the drug concentration inhibiting the cell growth by 50%, was calculated from appropriate dose-response curves.
(§2) In vitro cytotoxic/cytostatic activity final nucleosides 1-5 was initially evaluated against […] cell lines derived from human solid tumors including lung (A549 cells) and colon (HCT116 and HCT116p53−/−) carcinomas, as well as leukemia cell lines (CCRF-CEM, CEM-DNR, K562 and K562-TAX) and, for comparison, non-malignant BJ and MRC-5 fibroblasts. Concentrations inhibiting the cell growth by 50% (IC50) were determined using a quantitative metabolic staining with 3-(4,5-dimethylthiazol-2-yl)-2,5-diphenyltetrazolium bromide (MTT) (ref.: Denizot, F.; Lang, R. Rapid colorimetric assay for cell growth and survival: Modifications to the tetrazolium dye procedure giving improved sensitivity and reliability. J. Immunol. Meth. 1986, 89, 271-277) following a 3-day treatment.

[2] = test system: BJ; assay: Cytostatic/cytotoxic MTT assay, BJ fibroblasts; conditions: Homo sapiens, non-malignant fibroblasts, 72 h, read-out: MTT, IC50 BJ
Source text: as §1, §2

[3] = test system: HCV subtype 1B replicon in Huh-7 cells; assay: HCV sub-genomic reporter replicon assay, subtype 1B; conditions: Hepatitis C virus; Huh-7 cells, HCV subtype 1B replicon; read-out: Replicon 1B EC50
Protocol: (§3) Compounds were also tested in Huh-7 cells harboring sub-genomic reporter replicons derived from HCV subtypes 1B and 2A (ref.: Stuyver, L. J.; Whitaker, T.; McBrayer, T. R.; Hernandez-Santiago, B. I.; Lostia, S.; Tharnish, P. M.; Ramesh, M.; Chu, C. K.; Jordan, R.; Shi, J. X.; Rachakonda, S.; Watanabe, K. A.; Otto, M. J.; Schinazi, R. F. Antimicrob. Agents Chemother. 2003, 47, 244-254).

[4] = test system: Huh-7 cells harboring replicon 2A; assay: Cytotoxicity in replicon 2A cells; conditions: HCV subtype 2A replicon
Protocol: as §3

[5] = test system: HeLa S3; assay: XTT cytotoxicity assay, HeLa S3; conditions: Homo sapiens, HeLa S3; 72 h incubation; read-out: XTT, IC50 HeLa S3
Protocol: HL-60, Hela S3 and HepG2 cell lines (ATCC) were grown in RPMI-1640 or DMEM medium supplemented with 10% fetal calf serum, […] of streptomycin, 200 U/mL of penicillin G and 4 mM glutamine in a humidified atmosphere containing 5% CO2 at 37° C. Sensitivity of these cell lines to the synthesized compounds was assessed with the use of XTT cell proliferation kit II (Roche Diagnostics GmbH, Mannheim, Germany) according to the manufacturer's instructions. Briefly, cells were seeded in a 96-well plate at a density of 10,000 cells per well (90 μL). After 24 h, 10 μL of the tested compounds were added to the culture media at desired concentration range and incubated for 72 h. After that 50 μL of the XTT solution was added (1 mg/mL XTT+0.383 mg/mL N-methyl dibenzopyrazine methyl sulfate). The absorbance was recorded at 495 nm following a 2 h-incubation with the dye. IC50 values were determined by non-linear regression method using GraphPad Prism version 5.00 for Windows (GraphPad Software, La Jolla, Calif., USA).
In addition, the anti-proliferative effect was tested against a human T-lymphoblastic leukemia line CCRF-CEM, promyelocytic leukemia HL-60 and cervical carcinoma HeLa S3 growing in liquid suspension. Cell viability was determined following a 3-day incubation using 2,3-bis-(2-methoxy-4-nitro-5-sulfophenyl)-2H-tetrazolium-5-carboxanilide (XTT) assay (ref.: Scudiero, D. A.; Shoemaker, R. H.; Paull, K. D.; Monks, A.; Tierney, S.; Nofziger, T. H.; Currens, M. J.; Seniff, D.; Boyd M. R. Evaluation of a Soluble Tetrazolium/Formazan Assay for Cell Growth and Drug Sensitivity in Culture Using Human and Other Tumor Cell Lines. Cancer Res. 1988, 48, 4827-4833).

[6] = test system: A549; assay: Cytostatic/cytotoxic MTT assay, A549; conditions: Homo sapiens, A549; 72 h incubation; read-out: MTT, IC50 A549
Source text: as §1, §2

Row | Structure (SMILES) | IC50 [1] [µM] | IC50 [2] [µM] | EC50 [3] [µM] | CC50 [4] [µM] | IC50 [5] [µM] | IC50 [6] [µM]
1 | C#Cc1cn([C@@H]2O[C@H](CO)[C@@H](O)[C@H]2O)c2ncnc(SC)c12 [Compound 2g, 5-Ethynyl-4-methylsulfanyl-7-(β-D-ribofuranosyl)-7H-pyrrolo[2,3-d]pyrimidine] | 0.03 | 68.6 | 0.21 | > 44 | 0.11 | 0.14
2 | CSc1ncnc2c1c(I)cn2[C@@H]1O[C@H](CO)[C@@H](O)[C@H]1O [Compound 2h, 5-Iodo-4-methylsulfanyl-7-(β-D-ribofuranosyl)-7H-pyrrolo[2,3-d]pyrimidine] | 10.5 | 86.1 | 19.2 | > 44 | 0.25 | > 20
3 | CNc1ncnc2c1c(-c1ccco1)cn2[C@@H]1O[C@H](CO)[C@@H](O)[C@H]1O [Compound 3a, 5-(Furan-2-yl)-4-methylamino-7-(β-D-ribofuranosyl)-7H-pyrrolo[2,3-d]pyrimidine] | 0.22 | 5.04 | 0.06 | > 44 | 5 | 2.57
4 | CNc1ncnc2c1c(-c1ccoc1)cn2[C@@H]1O[C@H](CO)[C@@H](O)[C@H]1O [Compound 3b, 5-(Furan-3-yl)-4-methylamino-7-(β-D-ribofuranosyl)-7H-pyrrolo[2,3-d]pyrimidine] | > 20 | 96.3 | 35.9 | > 44 | > 20 | > 20
5 | CNc1ncnc2c1c(-c1cccs1)cn2[C@@H]1O[C@H](CO)[C@@H](O)[C@H]1O [Compound 3c, 4-Methylamino-7-(β-D-ribofuranosyl)-5-(thiophen-2-yl)-7H-pyrrolo[2,3-d]pyrimidine] | > 20 | > 100 | > 44 | > 44 | > 20 | > 20
6 | CNc1ncnc2c1c(-c1ccsc1)cn2[C@@H]1O[C@H](CO)[C@@H](O)[C@H]1O [Compound 3d, 4-Methylamino-7-(β-D-ribofuranosyl)-5-(thiophen-3-yl)-7H-pyrrolo[2,3-d]pyrimidine] | > 20 | > 100 | > 44 | > 44 | > 20 | > 20
7 | CNc1ncnc2c1c(-c1ccccc1)cn2[C@@H]1O[C@H](CO)[C@@H](O)[C@H]1O [Compound 3e, 4-Methylamino-5-phenyl-7-(β-D-ribofuranosyl)-7H-pyrrolo[2,3-d]pyrimidine] | > 20 | > 100 | > 44 | > 44 | > 20 | > 20
8 | CNc1ncnc2c1c(-c1cc3ccccc3o1)cn2[C@@H]1O[C@H](CO)[C@@H](O)[C@H]1O [Compound 3f, 5-(Benzofuran-2-yl)-4-methylamino-7-(β-D-ribofuranosyl)-7H-pyrrolo[2,3-d]pyrimidine] | > 20 | 75.6 | 2.05 | > 44 | > 20 | > 20
9 | C#Cc1cn([C@@H]2O[C@H](CO)[C@@H](O)[C@H]2O)c2ncnc(NC)c12 [Compound 3g, 5-Ethynyl-4-methylamino-7-(β-D-ribofuranosyl)-7H-pyrrolo[2,3-d]pyrimidine] | > 20 | 86 | 0.35 | > 44 | > 20 | > 20
10 | CN(C)c1ncnc2c1c(-c1ccco1)cn2[C@@H]1O[C@H](CO)[C@@H](O)[C@H]1O [Compound 4a, 4-Dimethylamino-5-(furan-2-yl)-7-(β-D-ribofuranosyl)-7H-pyrrolo[2,3-d]pyrimidine] | 0.15 | > 100 | 1.49 | > 44 | 1.19 | 4.6
